Laboratory results from US20110237632A1, “ANTIFOULING COMBINATION COMPRISING 4-BROMO-2-(4- CHLOROPHENYL)-5-(TRIFLUOROMETHYL)-1H-PYRROLE-3-CARBONITRILE” (priority 2008, published 2011).

Tested on: Tribonema sp. CCAP880/2
Assay: Poison Plate Assay (algal growth inhibition, MIC and synergy index)
Type: cell-based
Settings: 336 h, BG11 liquid medium, 24-well plates, 21° C., evaluation after 2 weeks of exposure, total ppm of combination at given ratio (I) to (II), read-out: MIC-values in ppm (minimum inhibitory concentration)
Procedure: • General procedure: to each well of a 24-well microtiter plate, 1990 μl BG11 medium containing the test compounds in one of the concentrations of a dose series is added. The liquid freshwater mineral medium is inoculated by adding an aliquot of an actively growing, 3 week old liquid BG11 culture of algae and incubated at 21° C., 65% relative humidity, 1000 Lux 16 hr/day. The growth is evaluated after two weeks. • Test compounds: 4-bromo-2-(4-chloro-phenyl)-5-(trifluoromethyl)-1H-pyrrole-3-carbonitrile as component (I) butylBIT as component (II); • Stock solution: 8000 and 80.000 ppm in DMSO
• Test combinations: • Concentrations: 1.6-1.2-0.9-0.68-0.51-0.38-0.29-0.21-0.16-0.12-0.09-0.07 ppm • Culture medium: algae: BG 11 liquid mineral medium • Experimental set up: 24-well plates • Species of algae: Tribonema sp. CCAP880/2 • Inoculum: algae: […] of a 1/10 dilution in BG 11 of a two week old culture • Culture conditions: 21° C., 65% relative humidity, 1000 lux, 16 hour photoperiod • Evaluation: algae: after 2 weeks of exposure
Synergism between component (I) and one of the components (II) was determined by a commonly used and accepted method described by Kull F. C. et al. in Applied Microbiology, 9, 538-541 (1961) using the Synergy Index, which is calculated as follows for two compounds A and B: […]

CCCCn1sc2ccccc2c1=O [(I) + (II) 0 + 100, 2-butyl-1,2-benzisothiazol-3(2H)one] was tested, and the MIC was 2.1 µg/mL.
